The results in this text go back to patent publication US9642835B2, “Modulators of GTPase and use in relevant treatment” (STC.UNM, priority 2010, dated 2017).

Assay [1] has as its system other Rho family GTPases (Rac1, RhoA). Kind of assay: Multiplex dose response with Mg, BODIPY-FL-GTP binding. To be noted: in the presence of Mg ions. How it is done: In experiments including magnesium, six GST-GTPases were assayed simultaneously in a single multiplex (Rac1 wt, Rac1Q61L, RhoA wt, RhoAL63, Cdc42 wt and Cdc42Q61L) and 1 nM BODIPY-FL-GTP binding was measured in the presence or absence of the serial drug dilution series. Each dose response series was run in duplicate.

Another assay concerns the target T1, wild-type Cdc42 (Homo sapiens, UniProt P60953).
T1 construct: purchased Cytoskeleton
Briefly: Equilibrium binding assay of BODIPY-FL-GTP. The following applies: 1.5 nM substrate, 1 mM MgCl2; read-out: IC50, inhibition of fluorescent GTP binding to Cdc42 wt. As to the method:
Changes in GTP binding affinity (Kd) and Bmax in the presence of a given compound were measured in multiplex (Cdc42, Cdc42Q61L, Rab2, Rab7, H-Ras and H-RasG12V) and single-plex formats (Rac1, Rac1Q61L and GST-GFP). GTPases and the GST-GFP control were individually bound to glutathione beads overnight at 4° C., washed with HPSE buffer, then resuspended together or assayed individually in the same buffer containing DTT and BSA. Bound GTPases were analyzed by mixing 5 μl protein-bound beads with 2.5-100 nM BODIPY-GTP in a total volume of 10 μl and incubating with rotation at 4° C. for 90 min. DMSO controls and samples treated with 10 μM of each test compound were run in parallel. Bound fluorescent nucleotide was measured using a Cyan ADP flow cytometer. Data were converted to ASCII format using IDLeQuery, exported and analyzed using Prism (GraphPad Software, Inc., San Diego, Calif.) non-linear, one-site binding.
Wild-type GST-Cdc42 (4 μM) was bound to GSH-beads overnight at 4° C. Cdc42 on GSH-beads was depleted of nucleotide by incubating with 10 mM EDTA containing buffer for 20 min at 30° C., washing twice with NP-HPS buffer, then re-suspended in the same buffer containing 1 mM EDTA/or 1 mM MgCl2, 1 mM DTT and 0.1% BSA. […] Samples incubated at 4° C. for 45 min and binding of fluorescent nucleotide to enzyme measured using an Accuri flow cytometer. […]

The subject of assay [2] is Cdc42, Rab2, Rab7, activated Rac1Q61L, Rac1, and H-Ras. Kind of assay: Multiplexed primary screen, fluorescent GTP binding. The following applies: 10 μM compound. As to the method:
Multiplex screening was performed by measuring GTP-binding activities of six GTPases (Cdc42, Rab2, Rab7, activated Rac1Q61L, Rac1, and H-Ras) simultaneously using special glutathione (GSH) bead sets having varied fluorescence intensities at a fixed wavelength^38. Individual GST-GTPase chimeras were tested against approximately 200,000 small molecules from the Molecular Libraries Small Molecule Repository (MLSMR). Results of fluorescent GTP-binding from the entire primary screen are summarized in the open access Pubchem database as required for projects conducted under the Roadmap Initiative (AID 757-761, 764). […] In total 1877 compounds/194,635 were identified as activators or inhibitors in the primary screen. On the order of 100-500 compounds were found active per GTPase target, enabling an unprecedented, comprehensive evaluation of small molecules active against various Ras-related GTPase family members. Here we report one compound active specifically on Cdc42 and structure activity relationships determined through chemical synthesis.
Multiplex analysis of small GTPases, were performed as we have described previously {Surviladze, 2009}. […] Flow cytometric light scatter and fluorescence emission at 530+/−20 nm (FL1) and 665+/−10 nm (FL8) were collected on a Cyan ADP flow cytometer (Beckman Coulter, Fullerton, Calif.). The resulting time-dependent data (one file per plate) were analyzed using IDLQuery software to determine the compound activity in each well. […] Gating based on FL8 emission distinguishes the beads coated with different proteins, and the median fluorescence per bead population was calculated. […]
For detection of GTP binding to small G-proteins we used bead-based multiplex flow cytometry assay {Surviladze, 2009}. […] Six individual GST-GTPases representative of Rho, Ras and Rab branches of the Ras-related GTPase family (Cdc42 wt, Rac1 wt, Rac1Q61L, Rab2 wt, Rab7 wt, and H-Ras wt) were first bound to GSH-beads of a particular fluorescence intensity. […]

T1 sequence (P60953 whole entry): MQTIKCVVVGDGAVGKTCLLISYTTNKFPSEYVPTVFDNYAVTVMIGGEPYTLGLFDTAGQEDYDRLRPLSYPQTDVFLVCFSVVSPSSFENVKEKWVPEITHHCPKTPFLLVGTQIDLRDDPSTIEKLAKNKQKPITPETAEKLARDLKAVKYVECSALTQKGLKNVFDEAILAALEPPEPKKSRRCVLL

The IC50 is the midpoint of a concentration-inhibition curve. On to `COc1ccc(C2CC(c3ccccc3)=NN2c2ccc(S(N)(=O)=O)cc2)cc1` (stereo not drawn) [MLS000693334, 4-[3-(4-methoxyphenyl)-5-phenyl-3,4-dihydropyrazol-2-yl]benzenesulfonamide], for which the “Effect on activity of other Rho family GTPases” value in assay [1] is on record as “did not affect activity”. Further, the half-inhibitory concentration (IC50) on wild-type Cdc42 came to 200 nM. Also, the “Outcome of primary screening” value in assay [2] is on record as “specific inhibitors”.
